Results on one compound are retold here after paper PMC8253137, “Microbiota-derived butyrate is an endogenous HIF prolyl hydroxylase inhibitor” (Gut Microbes, 2021).

In one test the test system is murine colon tissue. The experiment in a line: Rectal gavage in antibiotic-treated SCFA-depleted mice. As to conditions: after antibiotics. The test is classed as in vivo. On the procedure:
C57BL/6 mice were purchased from Jackson Laboratories. Animals were maintained and bred in standard housing conditions under 24 h/day, 7 days/week veterinary care available at the University of Colorado Anschutz Medical Campus (AMC) animal facility. All animal procedures were reviewed and approved by the Institutional Animal Care and Use Committee at AMC. 8 to 10-week-old male and female mice were pre-administered an antibiotic cocktail consisting of 1 mg/mL ampicillin, gentamicin, and neomycin, 0.5 mg/mL vancomycin, and 0.25 mg/mL metronidazole for 5 d ad libitum in addition to water control mice. Mice were then given 200 µL of tributyrin daily for three days using reusable feeding needles (18060–20, Fine Science Tools). On the third day, 4 h prior to sacrifice, select mice given tributyrin were rectally given 100 μL of 60 mM MCPA with plastic gavage tubes (FTP-20-38-50, Instech) inserted 1 cm into the rectum without surgical lubricant. Whole colon tissue at the site of the rectal gavage was collected for metabolite analysis, while colon whole tissue and epithelial scrapings upstream from the gavage site was collected for RNA and protein analysis. In the second butyrate reconstitution experiment, mice were rectally given 100 μL of 100 mM butyrate, 100 mM butyrate with 10 mM MCPA, 1.5 mM IOX2, or PBS control under anesthesia. Mice were then sacrificed 1 h after rectal supplementation and colon tissues collected for metabolite, mRNA, and protein analysis from the site of the rectal gavage.
TRIzol® reagent (ThermoFisher Scientific) was used to isolate total RNA from T84 cells. Mouse colon tissue samples were harvested into RNAlater™ (Invitrogen) and stored at 4°C for 48 h. Total RNA was isolated from the tissues using RNeasy Plus Mini Kit (Qiagen). cDNA was prepared using the iScript cDNA Synthesis Kit (Bio-Rad). Quantitative PCR analysis was performed using the Power SYBR™ Green master mix (Applied Biosystems) in a thermocycler. Fold change in expression of target mRNA relative to β-actin (ACTB) mRNA was calculated using the delta-delta Ct method. Primer sequences used are as follows: hBNIP3 – forward, 5′- […] −3′, reverse, 5′- […] −3′; hBNIP3L – forward, 5′- […] −3′, reverse, 5′- […] −3′; hGLUT1 – forward, 5′- […] −3′, reverse, 5′- […] −3′; hACTB – forward, 5′- […]-3′, reverse, 5′- […]-3′; mBnip3 – forward, 5′- […] −3′, reverse, 5′- […] −3′; mBnip3l – forward, 5′- […] −3′, reverse, 5′- […] −3′; mGlut1 – forward, 5′- […] −3′, reverse, 5′- […] −3′; and mActb – forward, 5′- […] −3′, reverse, 5′- […] −3′.
T84 cells were rinsed with PBS and collected and lysed in 200 µL of radioimmunoprecipitation assay (RIPA, 50 mM Tris-HCl pH 8.0, 1 mM EDTA, 1% Triton X-100, […], 0.5% sodium deoxycholate, 150 mM NaCl) buffer with protease inhibitors on ice. Mouse colon samples were harvested into 350 µL of RIPA buffer and flash frozen in liquid nitrogen. Samples were homogenized by sonication, and insoluble materials removed by centrifugation at 10,000 g for 5 min at 4°C. Protein quantity of the supernatant was determined using the Bradford reagent. Laemmli sample buffer was added to each sample. Samples (20 µg) were run and separated on 8% SDS-PAGE gels and transferred to polyvinylidene fluoride (PVDF) membranes. Membranes were blocked overnight at 4°C in Tris-buffered saline with 1% Tween-20 (TBS-T) and 5% milk. […]

The next test has as its system T84 cells. Briefly: 2-OG levels in T84 cells. The format is cell-based. As to conditions: 3 h. How it is done: T84 cells were cultured in 95% air with 5% CO2 at 37°C in standard media made of DMEM:F-12 supplemented with 10% calf serum, 1% penicillin/streptomycin, and 1% GlutaMAX™ (ThermoFisher Scientific) on 9.6 cm^2 6-well plates (ThermoFisher Scientific). Real-time oxygen sensing was done using the SensorDish Reader from Applikon Biotechnology as described previously with T84 cells plated on 0.33 cm^2 transwell inserts (Corning, 0.4 μm).[12] All MCPA treatments included a 2 h pretreatment with MCPA before treatment with butyrate.
Metabolites Extractions and HPLC-DAD: Cell and colon tissue metabolites were extracted and analyzed as previously described with minor variations.[61],[62] The metabolites were detected by absorption at wavelengths of 210, 254, and 280 nm, with their absorbance spectra and retention times verified by co-injection with authentic standards. Metabolites for HPLC-ESI MS analyses were resuspended in deionized water (pH 7.2).
HPLC-ESI MS: Analyses were performed on an Agilent Technologies 1260 Infinity II LC/MSD iQ with electrospray ionization (ESI) mass detection. Negative ion mass-to-charge ratios (m/z) were scanned from 50 to 500. The metabolite extracts were chromatographed using a Sepax Carbomix column (Pb-Np5:8%, 5 μm, non-porous, 4.6 × 300 mm) (mobile phase A: water; mobile phase B: acetonitrile; column temperature, 75°C). Chromatographic separation was performed using a combination of isocratic and gradient methods, including column washing and equilibration periods at the end (0 min: 100% A, 0.12 mL/min; 60 min: 100% A, 0.12 mL/min; 70 min: 70% A, 0.5 mL/min; 145 min: 70% A, 0.5 mL/min; 150 min: 100% A, 0.5 mL/min; 164 min, 100% A, 0.5 mL/min; 165 min, 100% A, 0.12 mL/min; 170 min, 100% A, 0.12 mL/min).

Each structure is given as a SMILES string.

As to `CCCC(=O)O` [Butyrate], in the test on murine colon tissue (colon tissue, rectal 100 mM butyrate or 1.5 mM IOX2, 1 h), the “mRNA expression of HIF-1α targets Bnip3, Bnip3l, Glut1” value is on record as “rescued”. Besides, in the test with murine colon tissue (colon tissue, rectal 100 mM butyrate with 10 mM MCPA, 1 h), the “mRNA expression of HIF-1α targets Bnip3, Bnip3l, Glut1, butyrate with MCPA” value is given as “rescued”. Besides, the “colon tissue 2-OG levels” value in the test with murine colon tissue (rectal 100 mM butyrate or 1.5 mM IOX2, 1 h) is listed as “rescued”. Moreover, the “2-OG levels compared to control” value in the test on T84 cells (10 mM butyrate or 30 μM IOX2) is “significantly increased”. Further, the “2-OG levels in the presence of MCPA” value in the test with T84 cells (10 mM butyrate with 1 mM MCPA) is “significantly increased”.
